Key:
[1] = human, in vivo
Protocol: Data was also evaluated from Study C (described in Example 3) and Study D, a Phase 2b/3 clinical trial evaluating the efficacy, safety, and tolerability of orally administered atogepant. In Study D, after a 28 day baseline period, a total of 652 patients were randomized 1:2:2:2 to receive either atogepant 10 mg (n=94), atogepant 30 mg (n=185), atogepant 60 mg (n=187) or placebo (n=186).
The proportion of patients with weight decrease ≥7% at any point was 2.8% for placebo, 3.8% for atogepant 10 mg, 3.2% for atogepant 30 mg, and 4.9% for atogepant 60 mg. No patients in either study discontinued atogepant due to decreased weight.

[2] = system: patients with migraine (4 to 14 migraine/probable migraine headache days); test: Example 5: randomized double-blind placebo-controlled 12-week dose-regimen study (QD and BID), migraine/probable migraine (MPM) headache days efficacy; assay type: in vivo, human; details: for At Least 50% Reduction in Mean Monthly MPM Headache Days, Non-responders / At Least 50% Reduction in Mean Monthly MPM Headache Days, Odds ratio vs. Placebo / At Least 50% Reduction in Mean Monthly MPM Headache Days, Responders / Change from Baseline in Mean Monthly Acute Medication Use Days, CFB MMRM LS Mean / Change from Baseline in Mean Monthly Acute Medication Use Days, CGP vs. Placebo LSMD / Change from Baseline in Mean Monthly Headache Days, CFB MMRM LS Mean / Change from Baseline in Mean Monthly Headache Days, CGP vs. Placebo LSMD / Change from Baseline in Mean Monthly MPM Headache Days, CFB MMRM LS Mean / Change from Baseline in Mean Monthly MPM Headache Days, CGP vs. Placebo LSMD: across the 12-Week Treatment Period, mITT Population; for Non-responders (at least 100% reduction in mean monthly MPM headache days not met), (%) / Non-responders (at least 100% reduction in mean monthly MPM headache days not met), n / Odds ratio vs. Placebo, at least 100% reduction in mean monthly MPM headache days / Responders (at least 100% reduction in mean monthly MPM headache days), (%) / Responders (at least 100% reduction in mean monthly MPM headache days), n: Weeks 1-4, mITT population
Protocol: In a multicenter, randomized, double-blind, placebo-controlled, parallel-group study designed to evaluate the efficacy, safety, and tolerability of multiple doses and doses regimens of atogepant for the prevention of migraine. The patients were randomized (2:1:2:1:2:1) to 1 of 6 treatment groups: placebo, atogepant 10 mg QD, atogepant 30 mg QD, atogepant 30 mg BID, atogepant 60 mg QD, and atogepant 60 mg BID.
This study consisted of a 4-week screening and baseline period and a 12-week double-blind treatment period, which was followed by a 4-week safety follow-up period. Total study duration is 20-weeks.
To be randomized, eligible patients had to be 18 to 75 years of age (inclusive), have a history of migraine with or without aura for at least 1 year consistent with a diagnosis according to the International Classification of Headache Disorders criteria, 3rd edition, beta version, have experienced 4 to 14 migraine/probable migraine headache days and <15 headache days in the 28-day baseline period. Patients who had clinically significant hematologic, endocrine, cardiovascular, cerebrovascular, pulmonary, renal, hepatic, gastrointestinal, or neurologic disease were excluded from the study.
A total of 834 patients were randomized to double-blind treatment (ITT population), and 825 patients took at least 1 dose of double-blind IP (safety population). […] The primary efficacy variable was the change from baseline in mean monthly migraine/probable migraine headache days across the 12-week treatment period. The secondary efficacy variables were the change from baseline in mean monthly headache days across the 12-week treatment period, proportion of patients with at least a 50% reduction in mean monthly migraine/probable migraine headache days across the 12-week treatment period, and the change from baseline in mean monthly acute medication use days across the 12-week treatment period.

With C[C@@H]1[C@H](c2c(F)ccc(F)c2F)C[C@H](NC(=O)c2cnc3c(c2)C[C@@]2(C3)C(=O)Nc3ncccc32)C(=O)N1CC(F)(F)F [atogepant] the “TEAE Weight decreased” value [1] was 5 (0.4%) n (%), the “At Least 50% Reduction in Mean Monthly MPM Headache Days, Non-responders” value (“At Least 50% Reduction … Non-responders” for short) ([2]; Atogepant 10 mg QD) was 39 (42.4) n (%) and the “At Least 50% Reduction in Mean Monthly MPM Headache Days, Odds ratio vs. Placebo” value (from here on “At Least 50% Reduction … Odds ratio vs. Placebo”) ([2]; Atogepant 10 mg QD) was 1.50. For the same compound, the “At Least 50% Reduction in Mean Monthly MPM Headache Days, Responders” value ([2]; Atogepant 10 mg QD) was 53 (57.6) n (%), the “Change from Baseline in Mean Monthly Acute Medication Use Days, CFB MMRM LS Mean” value ([2]; Atogepant 10 mg QD) was -3.71 days and the “Change from Baseline in Mean Monthly Acute Medication Use Days, CGP vs. Placebo LSMD” value ([2]; Atogepant 10 mg QD) was -1.30 days. For the same compound, the “Change from Baseline in Mean Monthly Headache Days, CFB MMRM LS Mean” value ([2]; Atogepant 10 mg QD) was -4.31 days, the “Change from Baseline in Mean Monthly Headache Days, CGP vs. Placebo LSMD” value ([2]; Atogepant 10 mg QD) was -1.38 days and the “Change from Baseline in Mean Monthly MPM Headache Days, CFB MMRM LS Mean” value ([2]; Atogepant 10 mg QD) was -4.00 days. For the same compound, the “Change from Baseline in Mean Monthly MPM Headache Days, CGP vs. Placebo LSMD” value ([2]; Atogepant 10 mg QD) was -1.15 days, the “At Least 50% Reduction … Non-responders” value ([2]; Atogepant 30 mg BID) was 33 (41.8) n (%) and the “At Least 50% Reduction … Odds ratio vs. Placebo” value ([2]; Atogepant 30 mg BID) was 1.83. The “At Least 50% Reduction in Mean Monthly MPM Headache Days, Responders” value ([2]; Atogepant 30 mg BID) was 46 (58.2) n (%), the “Change from Baseline in Mean Monthly Acute Medication Use Days, CFB MMRM LS Mean” value ([2]; Atogepant 30 mg BID) was -3.77 days and the “Change from Baseline in Mean Monthly Acute Medication Use Days, CGP vs. Placebo LSMD” value ([2]; Atogepant 30 mg BID) was -1.35 days. The “Change from Baseline in Mean Monthly Headache Days, CFB MMRM LS Mean” value ([2]; Atogepant 30 mg BID) was -4.23 days, the “Change from Baseline in Mean Monthly Headache Days, CGP vs. Placebo LSMD” value ([2]; Atogepant 30 mg BID) was -1.30 days and the “Change from Baseline in Mean Monthly MPM Headache Days, CFB MMRM LS Mean” value ([2]; Atogepant 30 mg BID) was -4.23 days. For the same compound, the “Change from Baseline in Mean Monthly MPM Headache Days, CGP vs. Placebo LSMD” value ([2]; Atogepant 30 mg BID) was -1.39 days, the “At Least 50% Reduction … Non-responders” value ([2]; Atogepant 30 mg QD) was 85 (46.7) n (%) and the “At Least 50% Reduction … Odds ratio vs. Placebo” value ([2]; Atogepant 30 mg QD) was 1.46. For the same compound, the “At Least 50% Reduction in Mean Monthly MPM Headache Days, Responders” value ([2]; Atogepant 30 mg QD) was 97 (53.3) n (%), the “Change from Baseline in Mean Monthly Acute Medication Use Days, CFB MMRM LS Mean” value ([2]; Atogepant 30 mg QD) was -3.86 days and the “Change from Baseline in Mean Monthly Acute Medication Use Days, CGP vs. Placebo LSMD” value ([2]; Atogepant 30 mg QD) was -1.44 days. For the same compound, the “Change from Baseline in Mean Monthly Headache Days, CFB MMRM LS Mean” value ([2]; Atogepant 30 mg QD) was -4.17 days, the “Change from Baseline in Mean Monthly Headache Days, CGP vs. Placebo LSMD” value ([2]; Atogepant 30 mg QD) was -1.24 days and the “Change from Baseline in Mean Monthly MPM Headache Days, CFB MMRM LS Mean” value ([2]; Atogepant 30 mg QD) was -3.76 days. For the same compound, the “Change from Baseline in Mean Monthly MPM Headache Days, CGP vs. Placebo LSMD” value ([2]; Atogepant 30 mg QD) was -0.91 days, the “At Least 50% Reduction … Non-responders” value ([2]; Atogepant 60 mg BID) was 33 (37.9) n (%) and the “At Least 50% Reduction … Odds ratio vs. Placebo” value ([2]; Atogepant 60 mg BID) was 2.03. For the same compound, the “At Least 50% Reduction in Mean Monthly MPM Headache Days, Responders” value ([2]; Atogepant 60 mg BID) was 54 (62.1) n (%), the “Change from Baseline in Mean Monthly Acute Medication Use Days, CFB MMRM LS Mean” value ([2]; Atogepant 60 mg BID) was -3.64 days and the “Change from Baseline in Mean Monthly Acute Medication Use Days, CGP vs. Placebo LSMD” value ([2]; Atogepant 60 mg BID) was -1.22 days. The “Change from Baseline in Mean Monthly Headache Days, CFB MMRM LS Mean” value ([2]; Atogepant 60 mg BID) was -4.32 days, the “Change from Baseline in Mean Monthly Headache Days, CGP vs. Placebo LSMD” value ([2]; Atogepant 60 mg BID) was -1.39 days and the “Change from Baseline in Mean Monthly MPM Headache Days, CFB MMRM LS Mean” value ([2]; Atogepant 60 mg BID) was -4.14 days. For the same compound, the “Change from Baseline in Mean Monthly MPM Headache Days, CGP vs. Placebo LSMD” value ([2]; Atogepant 60 mg BID) was -1.29 days, the “At Least 50% Reduction … Non-responders” value ([2]; Atogepant 60 mg QD) was 85 (48.0) n (%) and the “At Least 50% Reduction … Odds ratio vs. Placebo” value ([2]; Atogepant 60 mg QD) was 1.42. For the same compound, the “At Least 50% Reduction in Mean Monthly MPM Headache Days, Responders” value ([2]; Atogepant 60 mg QD) was 92 (52.0) n (%), the “Change from Baseline in Mean Monthly Acute Medication Use Days, CFB MMRM LS Mean” value ([2]; Atogepant 60 mg QD) was -3.53 days and the “Change from Baseline in Mean Monthly Acute Medication Use Days, CGP vs. Placebo LSMD” value ([2]; Atogepant 60 mg QD) was -1.11 days. For the same compound, the “Change from Baseline in Mean Monthly Headache Days, CFB MMRM LS Mean” value ([2]; Atogepant 60 mg QD) was -3.86 days, the “Change from Baseline in Mean Monthly Headache Days, CGP vs. Placebo LSMD” value ([2]; Atogepant 60 mg QD) was -0.94 days and the “Change from Baseline in Mean Monthly MPM Headache Days, CFB MMRM LS Mean” value ([2]; Atogepant 60 mg QD) was -3.55 days. For the same compound, the “Change from Baseline in Mean Monthly MPM Headache Days, CGP vs. Placebo LSMD” value ([2]; Atogepant 60 mg QD) was -0.70 days, the “Non-responders (at least 100% reduction in mean monthly MPM headache days not met), (%)” value ([2]; Atogepant 10 mg QD (N = 92)) was “(81.5) %” and the “Non-responders (at least 100% reduction in mean monthly MPM headache days not met), n” value ([2]; Atogepant 10 mg QD (N = 92)) was 75. The “Odds ratio vs. Placebo, at least 100% reduction in mean monthly MPM headache days” value ([2]; Atogepant 10 mg QD (N = 92)) was 6.39, the “Responders (at least 100% reduction in mean monthly MPM headache days), (%)” value ([2]; Atogepant 10 mg QD (N = 92)) was “(18.5) %” and the “Responders (at least 100% reduction in mean monthly MPM headache days), n” value ([2]; Atogepant 10 mg QD (N = 92)) was 17. The “Non-responders (at least 100% reduction in mean monthly MPM headache days not met), (%)” value ([2]; Atogepant 30 mg BID (N = 79)) was “(83.5) %”, the “Non-responders (at least 100% reduction in mean monthly MPM headache days not met), n” value ([2]; Atogepant 30 mg BID (N = 79)) was 66 and the “Odds ratio vs. Placebo, at least 100% reduction in mean monthly MPM headache days” value ([2]; Atogepant 30 mg BID (N = 79)) was 5.23. The “Responders (at least 100% reduction in mean monthly MPM headache days), (%)” value ([2]; Atogepant 30 mg BID (N = 79)) was “(16.5) %”, the “Responders (at least 100% reduction in mean monthly MPM headache days), n” value ([2]; Atogepant 30 mg BID (N = 79)) was 13 and the “Non-responders (at least 100% reduction in mean monthly MPM headache days not met), (%)” value ([2]; Atogepant 30 mg QD (N = 182)) was “(80.2) %”. The “Non-responders (at least 100% reduction in mean monthly MPM headache days not met), n” value ([2]; Atogepant 30 mg QD (N = 182)) was 146, the “Odds ratio vs. Placebo, at least 100% reduction in mean monthly MPM headache days” value ([2]; Atogepant 30 mg QD (N = 182)) was 7.05 and the “Responders (at least 100% reduction in mean monthly MPM headache days), (%)” value ([2]; Atogepant 30 mg QD (N = 182)) was “(19.8) %”.

— US12383545B1, “Treatment of migraine” (priority 2018, dated 2025)
